Reference: paper PMC6017477, “In Vitro ADME Properties of Two Novel Antimicrobial Peptoid-Based Compounds as Potential Agents against Canine Pyoderma” (Molecules : A Journal of Synthetic Chemistry and Natural …, 2018)

Columns and labels:
dog plasma proteins [1] = assay: Plasma protein binding, rapid equilibrium dialysis; format: in vitro ADME; details: dog plasma, 4 h incubation
Method: The plasma protein binding properties of candidate drugs can influence their efficacy, safety, and distribution. The fraction of peptoid bound to proteins of plasma collected from dogs was determined using rapid equilibrium dialysis.
Plate inserts comprised two side-by-side chambers separated by a dialysis membrane (8K MWCO). The chambers contained […] plasma or 350 µL dialysis buffer (PBS buffer pH 7.4), respectively. Dogplasma lot was identical to the one used in the plasma stability assay. […] Plates were sealed and incubated at 37 °C for 4 h on a shaker. Each test was run in quadruplicate in dog plasma. Upon completion of the assay, the plasma protein binding was determined by protein precipitation with ACN of both plasma and PBS, and drug levels were quantified via LC-MS/MS as described above. The percentage of bound compounds was determined from peak areas using Equations (3) and (4):% free = (concentration buffer chamber/concentration plasma chamber) × 100%(3) % bound = 100% − % free(4)

dog plasma proteins [2] = details: stated in the method for the control; no reference given; cited from earlier work

## CS(=O)(=O)CC(=O)N1CC2(C1)OCc1cc(C3=NO[C@@](c4cc(Cl)c(F)c(Cl)c4)(C(F)(F)F)C3)ccc12 [Control, sarolaner, reference compound]
Dog plasma proteins [1]; 37 °C
  % Unbound (free fraction): 0.27%
  Bound to plasma proteins: 99.7%
Dog plasma proteins [1]; n = 4
  % Average Recovery: 67.1%
Dog plasma proteins [2]
  protein bound (known value of the control compound): > 99%
